Laboratory results taken from doi:10.1101/2025.04.25.650653, “Hierarchical small molecule inhibition of MYST acetyltransferases” (bioRxiv, 2025).
Several values for one entry are separate records, joined by “and”; a condition that tells them apart may be missing. Identical values can stand only once.

System: histone modifications in MCF-7 cells
Experiment: Histone modification analysis by bottom-up LC-MS/MS
Assay type: cell-based
Settings: for Ratio, H2A1_12_17 unmod / Ratio, H2A3_12_17 K15me1: MCF-7; for Ratio, H3_3_8 K4me1 / Ratio, H3_3_8 unmod / Ratio, H3_54_63 unmod / Ratio, H3_41_49 unmod: Replicates 1-3
Excerpt: In this approach. […] Histones are then extracted from cell pellets and chemically derivatized with propionic anhydride, digested with trypsin, subjected to a second round of propionylation, and analyzed by LC-MS/MS. Measuring the relative intensity of modified versus unmodified forms of individual histone peptides enables simultaneous monitoring of multiple potential biomarkers of MYST inhibition. To minimize false positives, we focused on abundant and reproducible modifications (average stoichiometry of greater than 1% across triplicate samples, standard deviation less than or equal to the average measurement). To account for potential histone modification crosstalk, changes in both acetylated and methylated peptides were evaluated. 38 modified peptides passed this reproducible detection threshold including several established KAT biomarkers[41] including H3K9Ac (KAT2A/B), H3K18Ac (KAT3A/B), H3K14Ac (KAT7), H3K23Ac (KAT6A/B), H4K16Ac (KAT8), and H2A.ZK4/K7Ac (KAT5; Fig. 4B).
Histone modification analysis
MCF-7 cells were cultured at 37 °C under 5% CO2 in EMEM (Quality Biological, 112-016-101) with 0.01 mg/mL human recombinant insulin (Sigma Aldrich, 91077C), 2 mM L-glutamine (Quality Biological, 118- […]
human recombinant insulin.
1119, WM-3835). Following 24 h inhibitor treatment, cells were washed with ice-cold 1× PBS and scraped in 150 µL of Nuclear Isolation Buffer (NIB) containing 0.1% NP-40 for histone extraction using a modified protocol from the Garcia laboratory. 9 Briefly, cell suspensions were incubated on ice for 5 minutes, and […]
nuclei were pelleted by centrifugation (600 rcf, 4°C, 5 min). Pelleted nuclei were washed twice with 150 μL of detergent-free NIB buffer, followed by centrifugation (600 rcf, 4°C, 5 min) to remove all detergent.
Nuclei were then resuspended in 400 μL of 0.4 N H₂SO₄ and rotated at 4°C overnight for acid extraction of histones. The following day, samples were centrifuged (11,000 rcf, 4°C, 10 min) and the histone-containing supernatant was transferred to a fresh tube. Trichloroacetic acid (100% TCA) was added to achieve a final concentration of 20% (v/v), tubes were inverted once to mix, and histone precipitation was performed on ice for at least 3 hours or overnight at 4°C. Precipitated histones were collected by centrifugation (11,000 rcf, 4°C, 10 min) and the supernatant carefully removed, leaving a visible film of histones on the tube wall or bottom. Histone pellets were subjected to sequential washes with 1 mL of ice-cold acidified acetone (0.1% 12 N HCl) followed by 1 mL of 100% ice-cold acetone, with centrifugation (11,000 rcf, 4°C, 5 min) after each wash. Samples were air-dried at room temperature, resuspended in 40 µL of ddH₂O, and protein […]
analysis, 1-2 µg of purified histones were loaded per lane and processed according to the general immunoblotting protocol described in General Materials and Methods.
Analysis of histone modifications by LC-MS/MS
Preparation of histone samples for LC-MS/MS was performed analogously to the procedure for immunoblotting above, with the following modifications. MCF7 cells (4.2 × 106) were seeded in 15 cm dishes and treated with PF-9363 or vehicle. Experiments were performed in triplicate. Following treatment and PBS washing, cells were scraped and collected in 15 mL falcon tubes, pelleted (500 rcf, 4°C, 5 min), resuspended in 1 mL cold PBS, transferred to microcentrifuge tubes, and pelleted again before flash-freezing in liquid nitrogen for storage at -80°C. For extraction, cell pellets (~100 μL) were resuspended in NIB buffer at a 1:10 ratio, and cells were lysed with NIB buffer containing 0.2% NP-40 for 8 minutes on ice. Nuclei were pelleted at 1,000 rcf for 8 minutes and washed three times with 500 μL detergent-free NIB buffer. Histones were extracted using 800 μL of 0.2 M H₂SO₄, and after centrifugation (3,400 rcf, 4°C, 10

[1] = TKQTAR(H3_3_8), PF-9363 0.1 v 30
[2] = TKQTAR(H3_3_8), PF-9363 (0.1 mM)
[3] = TKQTAR(H3_3_8), PF-9363 (30 mM)

## COc1cccc(OC)c1S(=O)(=O)Nc1noc2cc(Cn3cccn3)cc(OC)c12 [PF-9363]
Replicate 2, PF-9363 30
  Ratio, H2A1_12_17 unmod: 0.4993
  Ratio, H2A3_12_17 K15me1: 0.4897
Replicate 3, PF-9363 0.1
  Ratio, H2A1_12_17 unmod: 0.4868
  Ratio, H2A3_12_17 K15me1: 0.466
Replicate 3, PF-9363 1
  Ratio, H2A1_12_17 unmod: 0.5044
  Ratio, H2A3_12_17 K15me1: 0.4869
Replicate 3, PF-9363 10
  Ratio, H2A1_12_17 unmod: 0.4939
  Ratio, H2A3_12_17 K15me1: 0.4755
Replicate 3, PF-9363 30
  Ratio, H2A1_12_17 unmod: 0.5006
  Ratio, H2A3_12_17 K15me1: 0.4892
[1]
  Fold-change 0.1 v 30, H3_3_8 K4me1: 1.02
  Fold-change 0.1 v 30, H3_3_8 unmod: 1.00
[2]
  Average ratio, H3_3_8 K4me1: 0.0973
  Average ratio, H3_3_8 unmod: 0.8963
[3]
  Average ratio, H3_3_8 K4me1: 0.0953
  Average ratio, H3_3_8 unmod: 0.8973
TKQTAR(H3_3_8), dose 0.1
  Ratio, H3_3_8 K4me1: 0.09461 and 0.103 and 0.09428
  Ratio, H3_3_8 unmod: 0.9002 and 0.8874 and 0.9011
TKQTAR(H3_3_8), dose 1
  Ratio, H3_3_8 K4me1: 0.09313 and 0.09156 and 0.09495
  Ratio, H3_3_8 unmod: 0.903 and 0.9014 and 0.9006
TKQTAR(H3_3_8), dose 10
  Ratio, H3_3_8 K4me1: 0.1087 and 0.09351 and 0.1018
  Ratio, H3_3_8 unmod: 0.8856 and 0.9033 and 0.8936
TKQTAR(H3_3_8), dose 30
  Ratio, H3_3_8 K4me1: 0.09818 and 0.09712 and 0.09049
  Ratio, H3_3_8 unmod: 0.8954 and 0.8931 and 0.9034
YQKSTELLIR(H3_54_63), PF-9363 0.1 v 30
  Fold-change 0.1 v 30, H3_54_63 unmod: 0.99
YQKSTELLIR(H3_54_63), PF-9363 (0.1 mM)
  Average ratio, H3_54_63 unmod: 0.9888
YQKSTELLIR(H3_54_63), PF-9363 (30 mM)
  Average ratio, H3_54_63 unmod: 0.9942
YQKSTELLIR(H3_54_63), dose 0.1
  Ratio, H3_54_63 unmod: 0.9974 and 0.9808 and 0.9881
YQKSTELLIR(H3_54_63), dose 1
  Ratio, H3_54_63 unmod: 0.9878 and 0.9887 and 0.9945
YQKSTELLIR(H3_54_63), dose 10
  Ratio, H3_54_63 unmod: 0.9895 and 0 and 0.9781
YQKSTELLIR(H3_54_63), dose 30
  Ratio, H3_54_63 unmod: 0.9962 and 0.9919 and 0.9944
YRPGTVALR(H3_41_49), PF-9363 0.1 v 30
  Fold-change 0.1 v 30, H3_41_49 unmod: 1.00
YRPGTVALR(H3_41_49), PF-9363 (0.1 mM)
  Average ratio, H3_41_49 unmod: 0.9999
YRPGTVALR(H3_41_49), PF-9363 (30 mM)
  Average ratio, H3_41_49 unmod: 0.9999
YRPGTVALR(H3_41_49), dose 0.1
  Ratio, H3_41_49 unmod: 0.9999 and 1 and 0.9998
YRPGTVALR(H3_41_49), dose 1
  Ratio, H3_41_49 unmod: 0.9993 and 1 and 0.9999
YRPGTVALR(H3_41_49), dose 10
  Ratio, H3_41_49 unmod: 0.9997 and 1 and 0.9999
YRPGTVALR(H3_41_49), dose 30
  Ratio, H3_41_49 unmod: 1 (2×) and 0.9996
Average ratio 0.1 v 30
  Fold-change 0.1 v 30, H2A1_1_11 K5ac: 0.99
  Fold-change 0.1 v 30, H2A1_4_11 K5ac: 0.88
  Fold-change 0.1 v 30, H2A1_4_11 K9ac: 1.17
  Fold-change 0.1 v 30, H2A1_4_11 unmod: 0.99
  Fold-change 0.1 v 30, H2A1_36_42 unmod: 1.00
  Fold-change 0.1 v 30, H2A3_36_42 unmod: 1.00
  Fold-change 0.1 v 30, H2AJ_4_11 K5acK9ac: 0.98
  Fold-change 0.1 v 30, H2AV_1_19 K4ac: 0.98
  Fold-change 0.1 v 30, H2AV_1_19 unmod: 1.14
  Fold-change 0.1 v 30, H2AX_36_42 unmod: 1.00
  Fold-change 0.1 v 30, H2AZ_1_19 K11ac: 0.64
  Fold-change 0.1 v 30, H2AZ_1_19 unmod: 0.92
  Fold-change 0.1 v 30, H3_73_83 K79me1: 1.08
  Fold-change 0.1 v 30, H3_73_83 K79me2: 1.32
  Fold-change 0.1 v 30, H3_73_83 unmod: 0.97
  Fold-change 0.1 v 30, H4_4_17 K12acK16ac: 0.05
  Fold-change 0.1 v 30, H4_4_17 unmod: 1.46
  Fold-change 0.1 v 30, H4_20_23 K20me1: 1.30
  Fold-change 0.1 v 30, H4_20_23 unmod: 1.38
